Measured values published in patent US6921775B2, “Methods for modulating brain damage” (Children's Medical Center Corporation, priority 2001, dated 2005).

System: AMPA receptors in cerebral white matter
Test: Intracerebral AMPA injection white matter injury
Assay type: in vivo
Description: The methods used in this example are described in Follett et al. (2000) J. Neurosci. 20:9235-9241, incorporated by reference herein.
NBQX attenuation of the selective white matter injury after hypoxia/ischemia implicated GluR-mediated toxicity as an important mechanism of injury in immature OLs. To confirm a relationship between the activation of AMPA receptors in cerebral white matter and the vulnerability to injury, AMPA was injected directly into immature white matter. […] Minimal to no injury was present in vehicle-injected controls (M K801 alone; n=7) at the same age (t test, p<0.001).
To determine whether AMPA toxicity was age dependent, lesion size after intracerebral AMPA injections at P4, P7, and P11 was compared.

## Cc1o[nH]c(=O)c1CC(N)C(=O)O (centres unmarked) [AMPA]
P7 rat pups, 5 nmol of AMPA plus 5 nmol of MK-801, vs MK-801 alone p<0.001
  white matter injury after intracerebral injection: produced white matter injury
Intracerebral AMPA, one-way ANOVA p<0.001
  white matter injury (pericallosal lesion size) after injection at P4 and P11 compared with P7: significantly less white matter injury
